Data from patent US20220273709A1, “DEVELOPMENT OF THERAPY FOR IMPROVING MYOCARDIAL CONTRACTION AND METHOD FOR INHIBITING CARDIOMYOCYTE DEATH” (KYUSHU UNIVERSITY, NATIONAL UNIVERSITY CORPORATION, priority 2019, published 2022).

What was measured:
[1] = system: primary cultured myocardial fibroblasts; assay: Fibrosis gene expression in myocardial fibroblasts after IFNγ, IL4 or IL10; assay type: cell-based; conditions: 1, 10, and 50 ng/mL, vs non-administration group (Veh)
Protocol: The changes in expression levels of genes (Ctgf Col1a, and Col3a) involved in fibrosis after IFNγ, IL4, or IL10 was administered to primary cultured myocardial fibroblasts were evaluated in order to investigate the mechanism by which the TGF β-Smad signaling system was inhibited due to the administration of α-GalCer/DC (number of administered cells: 3×10^6).
FIG. 38 is a graph showing changes in the expression levels of genes (Ctgf, Col1a, and Col3a) after the administration of IFNγ, IL4, or IL10 to myocardial fibroblasts. IFNγ, IL4, and IL10 were respectively administered at concentrations of 1, 10, and 50 ng/mL. Rps18 was used as an intrinsic control. “Veh” in the graphs represents a non-administration group (Vehicle).

[2] = system: primary cultured offspring rat myocardial cells; assay: Stat phosphorylation in primary cultured offspring rat myocardial cells after IFNγ, IL4 or IL10; assay type: cell-based
Protocol: IFNγ, IL4 or IL10 was administered to primary cultured offspring rat myocardial cells, and the changes in phosphorylation of proteins (Stat1, Stat6, and Stat3) were evaluated.

[3] = system: primary cultured myocardial fibroblasts; assay: Stat expression and phosphorylation in myocardial fibroblasts treated with IFNγ, IL4 or IL10; assay type: cell-based; conditions: vs CTL
Protocol: The primary cultured myocardial fibroblasts were treated with IFNγ, IL4, or IL10, and each of the expression levels of proteins (Stat1, Stat6, and Stat3) and the phosphorylation thereof were evaluated.

[4] = system: inflammatory cells; myocardial cells; assay: Cell death after IFNγ administration to inflammatory cells or myocardial cells; assay type: cell-based
[5] = system: cultured myocardial cells; assay: IFN-γ stimulation of cultured myocardial cells, pPLN and p-Stat1 (SDS-PAGE); assay type: cell-based
Protocol: The cultured myocardial cells were stimulated by adding IFN-γ solutions with three different concentrations (1, 10, and 50 ng/mL), and changes in concentration of pPLN were evaluated by ^-the SDS-PAGE method.
The cultured myocardial cells were stimulated by adding 50 ng/mL of an IFN-γ solution, and a change in concentration of pPLN over time was evaluated by the SDS-PAGE method.

[6] = system: offspring rat myocardial cells; assay: Changes in expression levels of Angpt1 due to cytokine administration; assay type: cell-based; conditions: vs CTL group
Protocol: The changes in the expression levels of an angiogenic factor Angpt1 after administration of IFNγ, IL4, or IL10 to offspring rat myocardial cells were evaluated (each n=3).

[7] = system: myocardial fibroblasts; assay: TGFβ administration to myocardial fibroblasts pretreated with IFNγ; assay type: cell-based
Protocol: The changes in expression levels of proteins when TGFβ was administered to myocardial fibroblasts pretreated with IFNγ were evaluated.
FIG. 39(a) is a western blot showing the expression levels of proteins (pSmad2, Smad2, pSmad3, and Smad3) when TGFβ was administered to myocardial fibroblasts pretreated with IFNγ (n=4). FIG. 39(b) is a graph quantifying the results of FIG. 39(a). The dose of IFNγ used for the pretreatment is 0, 1, 10, or 50 ng/mL, and the dose of TGFβ is 10 ng/mL. In the control group (CTL), neither IFNγ nor TGFβ was administered. Each graph is shown as a relative value in which the phosphorylation ratio (for example, pSmad2Smad2) in the CTL group is set to 1.0. When TGFβ was administered, Smad2 and Smad3 were phosphorylated, and the expression levels of pSmad2 and pSmad3 were increased.
FIG. 39(c) is a graph showing the expression levels of proteins (Ctgf, Col1a, and Col3a) when TGFβ was administered to myocardial fibroblasts pretreated with IFNγ (n=3 to 6). The dose of IFNγ used for the pretreatment is 0, 1, 10, or 50 ng/mL, and the dose of TGFβ is 10 ng/mL. Each graph is shown as a relative value in which the phosphorylation ratio (for example, pSmad2Smad2) in the CTL group is set to 1.0. In the graph, ** represents P<0.01, which is at a significant level with respect to the expression level of the CTL group.

[8] = system: Balb/c mice; assay: Difference between α-GalCer administration and α-GalCer/DC administration (western blotting of Stat1, Stat6); assay type: in vivo; conditions: only α-GalCer administered, 4 days
Protocol: The differences in expression levels of proteins Stat1 and Stat6 and degrees of phosphorylation in a case where only α-GalCer was administered and in a case where DC was administered as a carrier (that is, α-GalCer/DC was administered, the number of administered cells: 3×10^6) were evaluated by western blotting.
In the test, α-GalCer alone or α-GalCer/DC was administered to the Balb/c mice, and the expression level of each protein in the myocardium 4 days after the administration was evaluated by western blotting.

[9] = system: mice with DOX cardiomyopathy; assay: Effect of αGalCer on DOX mice: cardiac function and inflammatory cytokines; assay type: in vivo; conditions: Days 7 and 14
[10] = system: mice with DOX cardiomyopathy; assay: as above; assay type: in vivo; conditions: for apoptosis of myocardial cells (TUNEL staining) / left ventricular end-systolic dimension (LVDs) / left ventricular fractional shortening rate (FS): DOX group or GalCer+DOX group; for WH/TL and LV/TL: DOX group vs Control, GalCer+DOX group vs DOX group
Protocol: 10-week-old male C57BL/6J mice were divided into four groups of a Control group, a GalCer group, a DOX group, and a GalCer+DOX group. Hereinafter, the administration method will be described by setting the day when doxorubicin was initially administered as Day 0 (FIG. 4(a)).
PBS (phosphate buffered saline) was intraperitoneally administered (ip) and physiological saline was intravenously administered to the mice of the Control group on Day-7 (7 days before Day 0).
αGalCer (0.1 μg/g) was intraperitoneally administered (ip) to the mice of the GalCer group on Day-7, and physiological saline was intravenously administered thereto on Days 0, 2, and 4.
PBS was intraperitoneally administered (ip) to the mice of the DOX group on Day-7, and doxorubicin (6 mg/kg) was intravenously administered thereto on Days 0, 2, and 4.
αGalCer (0.1 μg/g) was intraperitoneally administered (ip) to the mice of the Galfer+DOX group on Day-7, and doxorubicin (6 mg/kg) was intravenously administered thereto on Days 0, 2, and 4.
The body weight, the blood pressure, the echocardiogram, the organ weight, the expression level of Vα14Jα18, the cardiac function, and inflammatory cytokines of each mouse at the time point of Day 14 were evaluated. Echocardiography was performed by anesthetizing mice with pentobarbital using an ultrasonic recording device EUB-8000 (trade name of Hitachi Medical Corporation). The left ventricular end-diastolic dimension and the left ventricular systolic end-systolic dimension were measured from the echo image, and the left ventricular fractional shortening rate serving as an index of the left ventricular contractility was calculated by an expression of “(left ventricular end-diastolic dimension—left ventricular systolic end-systolic dimension)left ventricular end-diastolic dimension×100”.

[11] = system: humans; conditions: systemically administered to humans; cited from earlier work
[12] = system: male C57BL6J mice; assay: Doxorubicin-induced cardiomyopathy model mice (DOX mouse): body weight, echocardiography, NKT cells and inflammatory cytokines in myocardium; assay type: in vivo
Protocol: Doxorubicin (6 mg/kg) was intravenously administered to male
C57BL6J mice aged 10 to 11 weeks from the tail vein once every two days. That is, in a case where the day when doxorubicin was initially administered was set to Day 0, doxorubicin was injected on Day 2 and Day 4 (total of 3 times of administration). At each time point of Day 0, 7, 14, 21, and 28, weight measurement and echocardiography were performed to evaluate the amounts of NKT cells and the expression levels of inflammatory cytokines in the myocardium.

[13] = IFNγ pretreatment 1, 10, or 50 ng/mL, then TGFβ 10 ng/mL
[14] = doxorubicin 6 mg/kg iv Days 0, 2, 4, Days 0 to 28

Which “expression levels of genes (Ctgf, Col1a, and Col3a)” value [1] does the source give for “IFNγ: interferon (IFN)-γ, cytokine added to cultured cells” here?
The value was “significantly decreased in a dose-dependent manner”.

And the “phosphorylation of Stat1 by αGalCer/DC observed in myocardial tissues, reproduction in cultured myocardial cells” value [2]?
The value was “reproduced”.

And the “expression levels and phosphorylation of Stat1” value [3]?
The value was “increased”.

And the “cell death of inflammatory cells” value [4]?
Its value is “easily caused cell death”.

What about the p-Stat1 over time ([5]; IFN-γ 50 ng/mL) of the same molecule?
The p-Stat1 over time was “increased immediately after the stimulation”.

What about the pPLN over time ([5]; IFN-γ 50 ng/mL) of the same molecule?
Its pPLN over time is “phosphorylated with a slight delay”.

And the “phosphorylation of PLN” value ([5]; IFN-γ 1, 10, and 50 ng/mL)?
Its value is “phosphorylated”.

What about the “expression levels of Angpt1” value [6] of the same molecule?
The value was “increased in a dose-dependent manner”.

And the “increase in expression levels of Ctgf, Col1a, and Col3a due to TGFβ” value [7, 13]?
The value was “inhibited in a dose-dependent manner”.

And the “phosphorylation ratio of Smad2 and Smad3” value [7, 13]?
Its value is “decreased in a dose-dependent manner”.

Which “expression levels of Ctgf, Col1a, and Col3a” value ([7]; TGFβ 10 ng/mL, no pretreatment) does the source give for TGFβ here?
The value was “increased”.

And the “expression levels of pSmad2 and pSmad3” value ([7]; TGFβ 10 ng/mL, no pretreatment)?
Its value is “increased”.

Which results are given for `CCCCCCCCCCCCCCCCCCCCCCCCCC(=O)N[C@@H](CO[C@H]1O[C@H](CO)[C@H](O)[C@H](O)[C@H]1O)[C@H](O)[C@H](O)CCCCCCCCCCCCCC` [αGalCer, α-Galactosylceramide]?
activation reaction of Stat1 in the myocardium [8]: extremely weak; dose dependence of Stat1 activation [8]: not observed; expression level of IFNγ [9]: increased; expression levels of inflammatory cytokines [9]: without decreasing; apoptosis of myocardial cells (TUNEL staining) [10]: inhibited; left ventricular end-systolic dimension (LVDs) ([10]; Day 14): improved to the same extent as the mice in the other groups; left ventricular fractional shortening rate (FS) ([10]; Day 14): improved to the same extent as the mice in the other groups; WH/TL and LV/TL ([10]; Day 14): improved; increase of expression level of Vα14Jα18 ([10]; αGalCer 0.1 μg/g ip Day-7, mice with DOX cardiomyopathy, Day 14): approximately 10.6 times; liver damage [11]: serious liver damage

What does the source list for `COc1cccc2c1C(=O)c1c(O)c3c(c(O)c1C2=O)C[C@@](O)(C(=O)CO)C[C@@H]3O[C@H]1C[C@H](N)[C@H](O)[C@H](C)O1` [doxorubicin]?
apoptosis of myocardial cells (TUNEL staining) [10]: observed; left ventricular end-systolic dimension (LVDs) ([10]; Day 14): large; left ventricular fractional shortening rate (FS) ([10]; Day 14): small; WH/TL and LV/TL ([10]; Day 14): significantly reduced; expression level of IL-6 ([12]; Day 7, vs Control): significantly increased; expression levels of IL-1β and TNF-α ([12]; Day 7, vs Control): decreased; expression levels of IL-1β, IL-6, and TNF-α ([12]; Day 14, vs doxorubicin non-administration group): all significantly increased; expression level of Vα14Jα18 ([12]; Days 7 and 14, Control set to 1): decreased; body weight (BW) [12, 14]: reduced after Day 7 tended to gradually increase; left ventricular fractional shortening rate (FS) [12, 14]: not improved

B1: IL4: interleukin-4, cytokine added to cultured cells (protein, UniProt P05112 25-153, looked up)
Interleukin-4: HKCDITLQEIIKTLNSLTEQKTLCTELTVTDIFAASKNTTEKETFCRAATVLRQFYSHHEKDTRCLGATAQQFHRHKQLIRFLKRLDRNLWGLAGLNSCPVKEANQSTLENFLERLKTIMREKYSKCSS
Which “expression levels of genes (Ctgf, Col1a, and Col3a)” value [1] does the source give for B1 here?
The value was “the same as those in the non-administration group”.

And the “phosphorylation of Stat1 by αGalCer/DC observed in myocardial tissues, reproduction in cultured myocardial cells” value [2]?
Its value is “reproduced”.

And the “phosphorylation of Stat6” value [3]?
The value was “increased in a dose-dependent manner”.

And the “expression levels of Angpt1” value [6]?
Its value is “not increased”.

B2: IFNγ: interferon (IFN)-γ, cytokine added to cultured cells (protein, UniProt P01579 24-161, looked up)
Interferon gamma: QDPYVKEAENLKKYFNAGHSDVADNGTLFLGILKNWKEESDRKIMQSQIVSFYFKLFKNFKDDQSIQKSVETIKEDMNVKFFNSNKKKRDDFEKLTNYSVTDLNVQRKAIHELIQVMAELSPAAKTGKRKRSQMLFRG
For B2, which “cell death of myocardial cells” value [4] is on record?
The value was “did not cause cell death”.

B3: IL10: interleukin-10, cytokine added to cultured cells (protein, UniProt P22301 19-178, looked up)
Interleukin-10: SPGQGTQSENSCTHFPGNLPNMLRDLRDAFSRVKTFFQMKDQLDNLLLKESLLEDFKGYLGCQALSEMIQFYLEEVMPQAENQDPDIKAHVNSLGENLKTLRLRLRRCHRFLPCENKSKAVEQVKNAFNKLQEKGIYKAMSEFDIFINYIEAYMTMKIRN
What does the source list for B3?
expression levels of genes (Ctgf, Col1a, and Col3a) [1]: the same as those in the non-administration group; phosphorylation of Stat1 by αGalCer/DC observed in myocardial tissues, reproduction in cultured myocardial cells [2]: not reproduced; phosphorylation of Stat6 [3]: not found; expression levels of Angpt1 [6]: not increased
